Among the data in patent publication US20230107941A1, “HEPATITIS B CAPSID ASSEMBLY MODULATORS” (Venatorx Pharmaceuticals, Inc., priority 2019, published 2023) are CC50 and EC50 values, retold here.

Read-outs that look alike come from different tables or passages of the source.

Series [1] in a line: In vitro cytotoxicity assay (MTT cell viability) in HepG2 cells. The class given is cell-based, human. The following applies: human. Summed up:
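CC50 was derived by 4-parameter fit of viability relative to vehicle controls, measured as MTT formazan absorbance at 492 nm after 3–4 h of reagent and DMSO solubilization. Before that, HepG2 cells seeded overnight at 20,000/well were incubated 7 days at 37°C with compound from 30 μM down to 1.0 nM in half-log steps.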

For series [2], the system named is HBV. The series is described as follows: In vitro antiviral assay: anti-HBV replication in HepAD38 cells (extracellular HBV DNA by QPCR). It is filed as cell-based, hepatitis B virus (genotype D, serotype ayw). The following applies: 7 days incubation, extracellular HBV DNA by QPCR, read-out: Anti-HBV EC50. In outline: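 Read-out is extracellular HBV DNA (copies/mL, QPCR standard curve) after 7-day exposure of tet-free HepAD38 cells to 10-fold dilutions from 1 μM down to 10 pM. Values normalised to DMSO vehicle; EC50 from 4-parameter nonlinear regression, with entecavir validating each run.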

[3] abbreviates: Hepatitis B virus, HePAD38, 168 h.

In general, CC50 refers to the concentration that lowers cell viability or growth by half. For orientation: EC50 means the midpoint of the concentration-response curve. `Cc1c(C(=O)NC2COCCOC2)c(C)n(C)c1C(=O)C(=O)NC(C)(C)C` [Example 48, 5-(2-(tert-butylamino)-2-oxoacetyl)-N-(1,4-dioxepan-6-yl)-1,2,4-trimethyl-1H-pyrrole-3-carboxamide] returned a CC50 at 7 days in series [1] greater than 30 µM. Besides, the EC50 in series [2] (setting [3]) is greater than 1 µM.
In the same order, the values of `Cc1cc(NC(=O)c2c(C)c(C(=O)C(=O)NC3(C)CCCN(C(=O)Nc4ccc(F)c(F)c4)C3)n(C)c2C)ccc1F` (centres unmarked) [Example 49, N-(3,4-difluorophenyl)-3-(2-(4-((4-fluoro-3-methylphenyl)carbamoyl)-1,3,5-trimethyl-1H-pyrrol-2-yl)-2-oxoacetamido)-3-methylpiperidine-1-carboxamide] are greater than 30 µM and 0.05 to 0.499 µM.
In the same order, the values of `CCC1(NC(=O)C(=O)c2c(C)c(C(=O)Nc3ccc(F)c(C)c3)c(C)n2C)CCN(c2cnccn2)CC1` [Example 50, 5-(2-((4-ethyl-1-(pyrazin-2-yl)piperidin-4-yl)amino)-2-oxoacetyl)-N-(4-fluoro-3-methylphenyl)-1,2,4-trimethyl-1H-pyrrole-3-carboxamide] are greater than 30 µM and less than 0.05 µM.
In the same order, the values of `Cc1c(C(=O)Nc2cc(Cl)nc(Cl)c2)c(C)n(C)c1C(=O)C(=O)N[C@H](C)C(F)(F)F` [Example 51, (R)-N-(2,6-dichloropyridin-4-yl)-1,2,4-trimethyl-5-(2-oxo-2-((1,1,1-trifluoropropan-2-yl)amino)acetyl)-1H-pyrrole-3-carboxamide] are greater than 30 µM and less than 0.05 µM.
For `Cc1cc(NC(=O)c2c(C)c(C(=O)C(=O)Nc3ccccc3N3CCOCC3)n(C)c2C)ccc1F` [Example 52, N-(4-fluoro-3-methylphenyl)-1,2,4-trimethyl-5-(2-((2-morpholinophenyl)amino)-2-oxoacetyl)-1H-pyrrole-3-carboxamide], the CC50 at 7 days in series [1] lay in the range of 5 to 30 µM. In series [2] (setting [3]), the EC50 is 0.05 to 0.499 µM.
Take `Cc1cc(NC(=O)c2c(C)c(C(=O)C(=O)Nc3cccnc3N3CCOCC3)n(C)c2C)ccc1F` [Example 53, N-(4-fluoro-3-methylphenyl)-1,2,4-trimethyl-5-(2-((2-morpholinopyridin-3-yl)amino)-2-oxoacetyl)-1H-pyrrole-3-carboxamide]: the CC50 at 7 days in series [1] is greater than 30 µM. The concentration for a half-maximal effect (EC50) in series [2] (setting [3]) is less than 0.05 µM.
Taken in the same sequence, the figures for `Cc1cc(NC(=O)c2c(C)c(C(=O)C(=O)Nc3ccncc3N3CCOCC3)n(C)c2C)ccc1F` [Example 54, N-(4-fluoro-3-methylphenyl)-1,2,4-trimethyl-5-(2-((3-morpholinopyridin-4-yl)amino)-2-oxoacetyl)-1H-pyrrole-3-carboxamide] were greater than 30 µM and 0.5 to 1 µM.
Regarding `COC(=O)c1cc(NC(=O)c2c(C)c(C(=O)C(=O)NC(C)(C)C)n(C)c2C)ccc1F` [Example 55, methyl 5-(5-(2-(tert-butylamino)-2-oxoacetyl)-1,2,4-trimethyl-1H-pyrrole-3-carboxamido)-2-fluorobenzoate], the CC50 at 7 days in series [1] was greater than 30 µM. Also, the EC50 in series [2] (setting [3]) is greater than 1 µM.
In the same order, the values of `Cc1c(C(=O)Nc2ccc(F)c(C(=O)O)c2)c(C)n(C)c1C(=O)C(=O)NC(C)(C)C` [Example 56, 5-(5-(2-(tert-butylamino)-2-oxoacetyl)-1,2,4-trimethyl-1H-pyrrole-3-carboxamido)-2-fluorobenzoic acid] are greater than 30 µM and 0.5 to 1 µM.
Taken in the same sequence, the figures for `Cc1c(C(=O)Nc2ccc(F)c(C(N)=O)c2)c(C)n(C)c1C(=O)C(=O)NC(C)(C)C` [Example 57, 5-(2-(tert-butylamino)-2-oxoacetyl)-N-(3-carbamoyl-4-fluorophenyl)-1,2,4-trimethyl-1H-pyrrole-3-carboxamide] were greater than 30 µM and greater than 1 µM.
Taken in the same sequence, the figures for `Cc1c(C(=O)NCc2noc(C(F)(F)F)n2)c(C)n(C)c1C(=O)C(=O)NC(C)(C)C` [Example 58, 5-(2-(tert-butylamino)-2-oxoacetyl)-1,2,4-trimethyl-N-((5-(trifluoromethyl)-1,2,4-oxadiazol-3-yl)methyl)-1H-pyrrole-3-carboxamide] were greater than 30 µM and greater than 1 µM.
`Cc1c(C(=O)Nc2ccc(F)c(C#N)c2)c(C)n(C)c1C(=O)C(=O)NC(C)(C)C` [Example 59, 5-(2-(tert-butylamino)-2-oxoacetyl)-N-(3-cyano-4-fluorophenyl)-1,2,4-trimethyl-1H-pyrrole-3-carboxamide] had a CC50 at 7 days in series [1] greater than 30 µM. In addition, in series [2] (setting [3]), the concentration for a half-maximal effect (EC50) is less than 0.05 µM.
Consider `Cc1c(C(=O)Nc2ccc(F)c(Br)c2)c(C)n(C)c1C(=O)C(=O)NC(C)(C)C` [Example 60, N-(3-bromo-4-fluorophenyl)-5-(2-(tert-butylamino)-2-oxoacetyl)-1,2,4-trimethyl-1H-pyrrole-3-carboxamide], for which, in series [1], the CC50 at 7 days was greater than 30 µM. For the same compound, the EC50 in series [2] (setting [3]) was less than 0.05 µM.
Compound `Cc1c(C(=O)N2CCC(C)(O)CC2)c(C)n(C)c1C(=O)C(=O)NC(C)(C)C` [Example 61, N-(tert-butyl)-2-(4-(4-hydroxy-4-methylpiperidine-1-carbonyl)-1,3,5-trimethyl-1H-pyrrol-2-yl)-2-oxoacetamide] showed a CC50 at 7 days in series [1] greater than 30 µM. For the same compound, in series [2] (setting [3]), the EC50 was in the range of 0.5 to 1 µM.
Taken in the same sequence, the figures for `Cc1c(C(=O)Nc2ccc(N3CCOCC3)nc2)c(C)n(C)c1C(=O)C(=O)NC(C)(C)C` [Example 62, 5-(2-(tert-butylamino)-2-oxoacetyl)-1,2,4-trimethyl-N-(6-morpholinopyridin-3-yl)-1H-pyrrole-3-carboxamide] were greater than 30 µM and greater than 1 µM.
`Cc1cc(NC(=O)c2c(C)c(C(=O)C(=O)NC3(C)CC(OP(=O)(O)O)C3)n(C)c2C)ccc1F` (centres unmarked) [Example 63, (1s,3s)-3-(2-(4-((4-fluoro-3-methylphenyl)carbamoyl)-1,3,5-trimethyl-1H-pyrrol-2-yl)-2-oxoacetamido)-3-methylcyclobutyl dihydrogen phosphate]: the CC50 at 7 days in series [1] is greater than 30 µM. In addition, the EC50 in series [2] was greater than 1 µM.
Take `Cc1c(C(=O)Nc2cccc(S(N)(=O)=O)c2)c(C)n(C)c1C(=O)C(=O)NC(C)(C)C` [Example 65, 5-(2-(tert-butylamino)-2-oxoacetyl)-1,2,4-trimethyl-N-(3-sulfamoylphenyl)-1H-pyrrole-3-carboxamide]: the CC50 at 7 days in series [1] is greater than 30 µM. In series [2] (setting [3]), the EC50 was greater than 1 µM.
Taken in the same sequence, the figures for `Cc1cccc(NC(=O)c2c(C)c(C(=O)C(=O)NC(C)(C)C)n(C)c2C)c1F` [Example 66, 5-(2-(tert-butylamino)-2-oxoacetyl)-N-(2-fluoro-3-methylphenyl)-1,2,4-trimethyl-1H-pyrrole-3-carboxamide] were greater than 30 µM and less than 0.05 µM.
In the same order, the values of `Cc1cc(F)cc(NC(=O)c2c(C)c(C(=O)C(=O)NC(C)(C)C)n(C)c2C)c1` [Example 67, 5-(2-(tert-butylamino)-2-oxoacetyl)-N-(3-fluoro-5-methylphenyl)-1,2,4-trimethyl-1H-pyrrole-3-carboxamide] are greater than 30 µM and less than 0.05 µM.
Turning to `Cc1ccc(F)c(NC(=O)c2c(C)c(C(=O)C(=O)NC(C)(C)C)n(C)c2C)c1` [Example 68, 5-(2-(tert-butylamino)-2-oxoacetyl)-N-(2-fluoro-5-methylphenyl)-1,2,4-trimethyl-1H-pyrrole-3-carboxamide], in series [1], the CC50 at 7 days was greater than 30 µM. In addition, in series [2] (setting [3]), the EC50 was less than 0.05 µM.
Taken in the same sequence, the figures for `Cc1c(C(=O)Nc2ccc(F)c(S(C)(=O)=O)c2)c(C)n(C)c1C(=O)C(=O)NC(C)(C)C` [Example 69, 5-(2-(tert-butylamino)-2-oxoacetyl)-N-(4-fluoro-3-(methylsulfonyl)phenyl)-1,2,4-trimethyl-1H-pyrrole-3-carboxamide] were greater than 30 µM and greater than 1 µM.
In the same order, the values of `CC(=O)N1CCC(CO)(NC(=O)C(=O)c2c(C)c(C(=O)Nc3ccc(F)c(C)c3)c(C)n2C)CC1` [Example 72, 5-(2-((1-acetyl-4-(hydroxymethyl)piperidin-4-yl)amino)-2-oxoacetyl)-N-(4-fluoro-3-methylphenyl)-1,2,4-trimethyl-1H-pyrrole-3-carboxamide] are greater than 30 µM and less than 0.05 µM.
In the case of `Cc1cc(NC(=O)c2c(C)c(C(=O)C(=O)NC3(CO)CCN(S(C)(=O)=O)CC3)n(C)c2C)ccc1F` [Example 73, N-(4-fluoro-3-methylphenyl)-5-(2-((4-(hydroxymethyl)-1-(methylsulfonyl)piperidin-4-yl)amino)-2-oxoacetyl)-1,2,4-trimethyl-1H-pyrrole-3-carboxamide], in series [1], the CC50 at 7 days is greater than 30 µM. Also, in series [2] (setting [3]), the EC50 was less than 0.05 µM.
`Cc1cc(NC(=O)c2c(C)c(C(=O)C(=O)NC3(CO)CCN(C(=O)c4cnn(C)c4)CC3)n(C)c2C)ccc1F` [Example 74, N-(4-fluoro-3-methylphenyl)-5-(2-((4-(hydroxymethyl)-1-(1-methyl-1H-pyrazole-4-carbonyl)piperidin-4-yl)amino)-2-oxoacetyl)-1,2,4-trimethyl-1H-pyrrole-3-carboxamide] displayed a CC50 at 7 days in series [1] greater than 30 µM. Moreover, the EC50 in series [2] (setting [3]) was less than 0.05 µM.
In the same order, the values of `Cc1cc(NC(=O)c2c(C)c(C(=O)C(=O)NC3(CO)CCN(C(=O)c4cn(C)nc4C(F)F)CC3)n(C)c2C)ccc1F` [Example 75, 5-(2-((1-(3-(difluoromethyl)-1-methyl-1H-pyrazole-4-carbonyl)-4-(hydroxymethyl)piperidin-4-yl)amino)-2-oxoacetyl)-N-(4-fluoro-3-methylphenyl)-1,2,4-trimethyl-1H-pyrrole-3-carboxamide] are greater than 30 µM and less than 0.05 µM.
